Legend:
[1] = Solubility of FR/NIR probes in ethanol, water and Diluent C; assay type: physicochemical
Experimental: Effects of the various combinations of asymmetrical and symmetrical alkyl chains and methene bridges on the solubility of the compounds of the present invention were examined. Compounds 8, 25, 13, 15 and 26 were all soluble in ethanol at concentrations≧1 mM. The more lipophilic probes 15 and 26, however, required sonication for a few minutes to achieve dissolution at 1 mM in ethanol. All example probes-were poorly soluble in water. Triplicate 1:50 dilutions of stock 1 mM probe solutions were made in either ethanol or test diluent. After 30 minutes at room temperature solutions were centrifuged at 10,000×g for 10 minutes to remove any microagregates and […] aliquots were transferred to 2.0 ml of ethanol for absorbance determinations. Based on the teachings of Leung et al. and on solubility specifications found on Sigma Certificates of Analysis for the commercial diluents (diluent supernatant absorbance at 30 minutes at least 60% of ethanol supernatant absorbance after 30 minutes), a preliminary specification at least 60% of the ethanol control was set as a surrogate for solubility sufficient to achieve cell labeling with S/N ratios greater than 100 and to minimize potential problems with brightness or reproducibility of labeling. None of the probes was as soluble after 30 minutes in Diluent C as PKH26 (86%±4% of ethanol control).

[2] = test system: YAC-1 murine lymphoma cells; experiment: Probe effects on cell viability and cell growth (Maximum Tolerated Concentration); assay type: cell-based; conditions: for Growth Inhibition / Cytotoxicity: at MTC; for Growth Inhibition: 22-24 hours culture, versus diluent alone; for Cytotoxicity: trypan blue exclusion immediately post-staining (T = 0)
Experimental: YAC-1 murine lymphoma cells were stained at a concentrations of 10^7 cells/ml with increasing concentrations of probe by rapidly admixing 2× cells suspended in Diluent C with 2× probe in Diluent C. After 5 minutes at room temperature, the staining was stopped by the addition of cell culture medium. Cells were then washed thoroughly (RPI1640+10.0% FBS) and cultured under standard conditions for 22-24 hours. Cell numbers were compared to those in a control culture treated with diluent alone.
Maximum Tolerated Concentration (MTC) of probe was defined as the highest concentration of probe at which (1) viability by trypan blue exclusion immediately post-staining was>90% and (2) YAC cell growth after 24 hours was no more than 10% different than growth of cells in diluent alone.

[3] = Absorbance/emission spectra in ethanol; assay type: physicochemical; design: key to Excitation Max / Emission Max: wavelength in nm; conditions: for Absorbance Max / Emission Max / Excitation Max: solutions in ethanol
Experimental: Referring now to Table 1 there are shown representations of the absorbance and emission properties of some example compounds of the present invention. Absorption and Fluorescence spectra were […] using 0.25 μM solutions in ethanol on a Jasco, Inc. UV-530 UV/VIS spectrophotometer and FP 750 spectrofluorometer, respectively. Approximate extinction coefficients were estimated from the absorbance scans by dividing the maximum absorbance by the nominal concentration ([…]).

| SMILES | solubility retained in Diluent C after 30 minutes ([1]; Diluent C, 30 minutes) | Growth Inhibition [2] [%] | Cytotoxicity [2] [%] | maximum fluorescence ([3]; excitation light of about 635 nm) [nm] | Absorbance Max [3] | Emission Max [3] | Excitation Max [3] | emission maximum wavelength ([3]; excitation light of about 647 nm) [nm] | solubility retained in Diluent C after 30 minutes ([1]; 30 min, 20 µM) | solubility ([1]; organic solvent or mixture) [µM] | MTC (Maximum Tolerated Concentration) ([2]; YAC-1 cells, 5 minutes staining in Diluent C) [µM] | solubility after 30 minutes in Diluent C ([1]; 1:50 dilution of 1 mM stock, 30 minutes at room temperature) |
| --- | --- | --- | --- | --- | --- | --- | --- | --- | --- | --- | --- | --- |
| CCCCCCCCCCCCCCCCCCCCCC[N+]1=C(/C=C/C=C/C=C2/N(CCCCCCCCCCCCCC)c3ccccc3C2(C)C)C(C)(C)c2ccccc21.[I-] [Compound 8] | approximately 65 % of solubility at T0 | <1 | <1 | 667 | 626 | 667 | 647 | – | – | – | – | – |
| CCCCCCCCCCCCCCCCCCCCCC[N+]1=C(/C=C/C=C/C=C2/N(CCCCCCCCCCCCCC)c3ccc4ccccc4c3C2(C)C)C(C)(C)c2c1ccc1ccccc21.[I-] [Compound 13] | – | <1 | <1 | – | 684 | 713 | 680 | 713 | – | – | – | – |
| CCCCCCCCCCCCCCCCCCCCCC[N+]1=C(/C=C/C=C/C=C/C=C2/N(CCCCCCCCCCCCCC)c3ccc4ccccc4c3C2(C)C)C(C)(C)c2c1ccc1ccccc21.[I-] [Compound 15] | approximately 65 % of solubility at T0 | <5 | <1 | – | 786 | 814 | 790 | – | – | – | – | – |
| CCCCCCCCCCCCCCCCCCCCCC[N+]1=C(/C=C/C=C/C=C2/N(CCCCCCCCCCCCCC)c3ccc4ccccc4c3C2(C)C)C(C)(C)c2ccccc21 [Compound 25] | – | <4 | <1 | – | 666 | 682 | 667 | – | greater than 55 % of solubility at T0 | ≥ 1000 | 10 | – |
| CCCCCCCCCCCCCCCCCCCCCC[N+]1=C(/C=C/C=C2/N(CCCCCCCCCCCCCC)c3ccccc3C2(C)C)C(C)(C)c2ccccc21.[I-] [PKH26, reference compound] | – | <1 | <1 | – | – | – | – | – | – | – | – | 86%±4% |
